# From ChEMBL document CHEMBL1201862, “PubChem BioAssay data set” (2004)
#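 Protocol summary: plate cells (96-well), add compound at 5 concentrations, incubate 48 h, interpolate endpoints linearly. Here, GI50 denotes the concentration required for 50% inhibition of growth.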 Active and inactive are the calls of the source. Rule as the data show it: active = GI50 up to about 1.1 µM and inactive = higher.
# What was measured:
# Experiment in all cases: growth of human tumour cells (NCI), 48 h
# LXFL 529 = test system: LXFL 529
# HOP-18 = test system: HOP-18
# RXF 631 = test system: RXF 631
# NCI/ADR-RES = test system: NCI/ADR-RES
# MDA-N = test system: MDA-N
# MDA-MB-435 = test system: MDA-MB-435
# T47D = test system: T47D
# BT-549 = test system: BT-549
# MCF7 = test system: MCF7
Compound,GI50 (LXFL 529),GI50 (HOP-18),GI50 (RXF 631),further results
CCOC(=O)/C(=C\c1ccc[nH]1)C(=O)c1ccccc1,> 100 µM (inactive),78.9 µM (inactive),> 100 µM (inactive),
Cc1c(CNc2ccc(C(=O)NC(CC(=O)O)C(=O)O)cc2)ccc2nc(N)nc(N)c12 (centres undefined),< 0.01 µM (active),0.867 µM (active),,GI50 (NCI/ADR-RES): < 0.01 µM (active); GI50 (MDA-N): < 0.01 µM (active); GI50 (MDA-MB-435): < 0.01 µM (active); GI50 (T47D): > 100 µM (inactive); GI50 (BT-549): > 100 µM (inactive); GI50 (MCF7): < 0.01 µM (active)
COC1=C2CC(C)CC(OC)C(O)C(C)/C=C(\C)C(OC(N)=O)C(OC)/C=C\C=C(/C)C(=O)NC(=C(/C=N/N3CCCCC3)C1=O)C2=O (centres undefined),10 µM (inactive),11.9 µM (inactive),8.28 µM (inactive),
COC(=O)c1c(CC(=O)OC(C)C)cc2n(c1=O)Cc1c-2nc2ccccc2c1OC,> 100 µM (inactive),> 100 µM (inactive),,
Cn1c(=O)oc2cc(C3CCC(=O)N3Cc3ccc(Cl)cc3)ccc21 (centres undefined),> 100 µM (inactive),> 100 µM (inactive),,
COc1ccc(C2[C@H]3C(=O)N(c4ccc(Cc5ccc(N6C(=O)[C@@H]7ON(c8ccccc8)C(c8ccc(OC)cc8)[C@@H]7C6=O)cc5)cc4)C(=O)[C@H]3ON2c2ccccc2)cc1 (some centres undefined),> 100 µM (inactive),> 100 µM (inactive),,
CC1=NN(C(=O)c2ccccc2O)C(=O)/C1=C/c1ccc([N+](=O)[O-])cc1,0.0586 µM (active),,,GI50 (NCI/ADR-RES): 0.664 µM (active); GI50 (MDA-N): 0.413 µM (active); GI50 (MDA-MB-435): 0.106 µM (active); GI50 (T47D): 1.89 µM (inactive); GI50 (BT-549): 0.328 µM (active); GI50 (MCF7): 0.726 µM (active)
C[N+](C)(C)CC1CCC/C1=N\OC(=O)c1ccccc1 (centres undefined),> 100 µM (inactive),> 100 µM (inactive),,
C[N+](C)(C)CC(=O)N/N=C(/Cc1nc2c3c(ccc2nc1O)C(=O)c1ccccc1C3=O)C(=O)Nc1ccc(Cl)c(Cl)c1,,,76.6 µM (inactive),
Cc1nc(-c2nc(C)c(C(=O)/C=C/c3ccc([N+](=O)[O-])cc3)s2)sc1C(=O)/C=C/c1ccc([N+](=O)[O-])cc1,> 100 µM (inactive),,,
Cc1ccc(C2=NN(C)COC2C(F)(F)F)cc1 (centres undefined),> 100 µM (inactive),> 100 µM (inactive),> 100 µM (inactive),
Cc1cccc(NC(=O)Cc2nc3ccccc3s2)c1C,> 100 µM (inactive),,> 100 µM (inactive),
[N-]=[N+]=N[C@H]1C[C@@H](CO)O[C@H]1n1cnc2c(N)ncnc21,> 100 µM (inactive),0.202 µM (active),,
COc1ccc(CC2(Cc3ccc(OC)cc3)CCOC2=O)cc1,> 100 µM (inactive),,,
Cc1cc(Cl)ccc1NC(=O)CCCC(=O)C1CCCC1=O (centres undefined),> 100 µM (inactive),> 100 µM (inactive),,
N=S(c1ccccc1[N+](=O)[O-])c1ccccc1[N+](=O)[O-],2.96 µM (inactive),6.11 µM (inactive),1.8 µM (inactive),GI50 (MDA-N): 1.36 µM (inactive); GI50 (T47D): 0.311 µM (active); GI50 (BT-549): 1.62 µM (inactive); GI50 (MCF7): 0.129 µM (active)
COc1ccccc1NC(=O)C1=C(C)NC(C)=C(C(=O)Nc2ccccc2OC)C1c1cccc2ccccc12,28.1 µM (inactive),76.7 µM (inactive),87.9 µM (inactive),
COC(=O)CCCN(C)c1nc(N)n[nH]1,> 100 µM (inactive),,,
COc1ccc2nc3cc(Cl)ccc3c(Sc3ccc([N+](=O)[O-])cc3)c2c1,> 10 µM (inactive),> 10 µM (inactive),> 10 µM (inactive),
O=C(CCCCCCCCCCc1ccccc1)c1c(O)cccc1O,18.6 µM (inactive),29.1 µM (inactive),30.8 µM (inactive),

Compound,GI50 (LXFL 529),GI50 (HOP-18),GI50 (RXF 631),further results
Cc1cc2c(C)nn(Cc3ccccc3)c2c(C(N)=O)c1C,> 100 µM (inactive),,,
C/C(=N\NC(=N)N)C(CN1CCCCC1)C(c1ccccc1)c1c(O)c2ccccc2oc1=O (centres undefined),> 100 µM (inactive),,> 100 µM (inactive),
O=C(Cc1nc2ccccc2c(=O)n1-c1c(Cl)cccc1Cl)c1ccncc1,27.7 µM (inactive),33.8 µM (inactive),23.9 µM (inactive),
CC(C)(c1ccccc1)c1ccc(Oc2ccc(C#N)c(C#N)c2)cc1,24.4 µM (inactive),> 10 µM (inactive),> 10 µM (inactive),
CC12Oc3ccc4ccccc4c3C1c1c(ccc3ccccc13)O2 (centres undefined),> 100 µM (inactive),,,
Cc1cc(C)nc(NS(=O)(=O)c2ccc(Nc3c4ccc(Cl)cc4nc4c(C(=O)Nc5ccc(S(=O)(=O)N=C(N)N)cc5)cccc34)cc2)n1,66.7 µM (inactive),,,
O=C1c2c(n(Cc3ccccc3)c(=O)n2Cc2ccccc2)C(=O)N1Cc1ccccc1,35 µM (inactive),> 100 µM (inactive),62.7 µM (inactive),
O=S(=O)(c1ccccc1)C1(C2(S(=O)(=O)c3ccccc3)CCN=N2)CCN=N1 (centres undefined),> 100 µM (inactive),,,
C/C(=C1/N=C(c2cc([N+](=O)[O-])ccc2Cl)N(c2cccc(C)c2)C1=O)c1cc2ccccc2oc1=O,84.9 µM (inactive),74.6 µM (inactive),> 100 µM (inactive),
CCOC(=O)N1CCN(C=S)CC1,> 100 µM (inactive),> 100 µM (inactive),> 100 µM (inactive),
C#CCNC(=O)ON1C(=O)CCC1=O,> 100 µM (inactive),> 100 µM (inactive),> 100 µM (inactive),
Clc1ncnc2c1ncn2CCCCCCCCCCCCn1cnc2c(Cl)ncnc21,4.44 µM (inactive),17.1 µM (inactive),,
CC(C)(C)c1cc(C(OCCl)(C(F)(F)F)C(F)(F)F)c2c(c1)C(C(F)(F)F)(C(F)(F)F)OC21c2ccccc2C(=O)c2ccccc21,> 100 µM (inactive),> 100 µM (inactive),> 100 µM (inactive),
COc1cc2c(cc1OC)NC(=O)NC(Cc1ccc3c(c1)OCO3)CC2 (centres undefined),> 100 µM (inactive),,,
CCCCCCCCCCCC1CC(=O)NCCCN(C)CCCCN(C)CCCN1C (centres undefined) [BUDMUNCHIAMINE A],1.72 µM (inactive),1.77 µM (inactive),,
O=C(/C=C/c1ccccc1Cl)c1ccc(Cl)cc1Cl,16.2 µM (inactive),17 µM (inactive),19 µM (inactive),
C=CCN(C(=O)OC(C)(C)C)[C@H](C)C(=O)N[C@@H](C)C(=O)OC,,,,GI50 (NCI/ADR-RES): > 100 µM (inactive); GI50 (MDA-N): > 100 µM (inactive); GI50 (MDA-MB-435): > 100 µM (inactive); GI50 (T47D): > 100 µM (inactive); GI50 (BT-549): > 100 µM (inactive); GI50 (MCF7): > 100 µM (inactive)
C(=N\c1ccc(-c2nc3ccccc3[nH]2)cc1)/c1cccs1,,,,GI50 (NCI/ADR-RES): 43 µM (inactive); GI50 (MDA-N): > 100 µM (inactive); GI50 (MDA-MB-435): > 100 µM (inactive); GI50 (T47D): 31.9 µM (inactive); GI50 (BT-549): 27.4 µM (inactive); GI50 (MCF7): 8.91 µM (inactive)
CCOC(=O)NC(=O)c1cn(CCN2CCN(c3ncnc4[nH]cnc34)CC2)c(=O)[nH]c1=O,> 100 µM (inactive),> 100 µM (inactive),> 100 µM (inactive),
CCOC(=O)n1ccc2c(C(=O)OC)c(C(=O)OC)cc(/C(=C/C(=O)OC)C(=O)OC)c21,,,,GI50 (NCI/ADR-RES): > 100 µM (inactive); GI50 (MDA-N): 83.6 µM (inactive); GI50 (MDA-MB-435): > 100 µM (inactive); GI50 (T47D): 74.5 µM (inactive); GI50 (BT-549): 60.7 µM (inactive); GI50 (MCF7): > 100 µM (inactive)
